Tests used:
ALDP [1] = test: Semi-quantitative RT-PCR in primary fibroblasts; format: cell-based, mouse; settings: normal primary fibroblasts, 5 mM 4-PBA for 2 days
Procedure: (§1) Semi-quantitative RT-PCR was done on the mRNA isolated from these cells (FIG. 1). […] In addition, the expression of acyl-CoA oxidase (AOX), the rate-limiting enzyme in VLCFA β-oxidation, was not affected. Although previous studies have reported that ALDR mRNA was not detectable in fibroblasts by either northern or RT-PCR analyses, those RT-PCR studies used about 66 ng of CDNA; we used about 250 ng of cDNA.
(§2) Semi-quantitative RT-PCR analysis. Total RNA from tissue culture cells (10^6-10^7 cells/sample) was isolated using TRizol Reagent™ (Life Technologies), treated with DNase I (100-200 units in 40 mM HCI, 10 mM NaCl, 6 mM MgCl2, pH 7.3), incubated at 37° C. for 30 min, extracted with phenol/chloroform, and precipitated with isopropanol. cDNA was generated using MMLV reverse transcriptase (RT) (Life Technologies). PCR was done in the linear range of amplification (determined for each primerpair-cDNA combination). For each cDNA sample, a ‘cocktail’ was prepared, containing PCR buffer (Promega), 200 µM of each DNTP, 1.5 mM MgCl2, 250 ng cDNA, 0.25 U of Taq polymerase (Promega) and […]. The ‘cocktail’ was divided into separate tubes containing cDNA specific primers.
(§3) Primers. The PCR primers used are listed below. In the parentheses, h indicates human and m, mouse; this is followed by the gene name, product size and annealing temperature. […]

PMP70 [2] = test: Semi-quantitative RT-PCR in primary fibroblasts; format: cell-based, mouse; settings: X-ALD or normal primary fibroblasts, 5 mM 4-PBA for 2 days
Procedure: as §1, §2, §3

ALDP [3] = test: Semi-quantitative RT-PCR in primary fibroblasts; format: cell-based, human; settings: normal primary fibroblasts, 5 mM 4-PBA for 2 days
Procedure: as §1, §2
(§4) Primers. The PCR primers used are listed below. In the parentheses, h indicates human and m, mouse; this is followed by the gene name, product size and annealing temperature. For primer sequences, F is forward and R is reverse. […]

PMP70 [4] = test: Semi-quantitative RT-PCR in primary fibroblasts; format: cell-based, human; settings: X-ALD or normal primary fibroblasts, 5 mM 4-PBA for 2 days
Procedure: as §1, §2, §4

PMP69 = test: Semi-quantitative RT-PCR in primary fibroblasts; format: cell-based, human; settings: X-ALD or normal primary fibroblasts, 5 mM 4-PBA for 2 days
Procedure: as §1, §2, §4

[5] = test system: human primary fibroblasts; test: Phytanic acid oxidation ([2,3-3H]-phytanic acid, release of 3H-H2O); format: cell-based; settings: 5 mM 4-PBA for 10 days
Excerpt: The increase in phytanic acid oxidation activity was significant (P<0.001 5(n=4) for X-ALD primary fibroblasts and P<0.013 (n=3) for normal primary fibroblasts). […] The relative amount of SCP2 protein was compared to the housekeeping gene β-actin.
Phytanic acid oxidation occurs exclusively in the peroxisomal matrix and can therefore serve as a marker for peroxisomal function. […] SCP2 is a 15-kDa protein located exclusively in the peroxisomal matrix.
Biochemical measurements. […] For VLCFA measurements, total lipids were extracted, converted to methyl esters, purified by TLC and subjected to capillary GC analysis as described. Duplicate assays were set up independently and were assayed on different days. C24:0 β-oxidation activity of human and mouse fibroblasts and human lymphoblastoid cells was determined by measuring their capacity to degrade [1-^14C]-C24:0 fatty acid (American Radiolabeled Chemicals, St Louis, Mo.) to water-soluble products as described. Phytanic acid oxidation was measured as described. Cells were incubated with [2,3-^3H]-phytanic acid for 24 hours, and the release of ^3H-H2O to the aqueous medium was determined (activity in pmol/hr per mg protein).

[6] = test system: human primary fibroblasts derived from X-ALD patients; test: VLCFA (C24:0, C26:0) levels in cultured cells, capillary GC; format: cell-based
Excerpt: The genotypes of the X-ALD patients included missense, nonsense, frame shift and deletion mutations and all of the main clinical phenotypes.
After two days of treatment, a time-dependent reduction in VLCFA levels in human and mouse X-ALD cell lines was observed. In human lymphoblastoid cells and mouse fibroblasts, C24:0 and C26:0 levels were normalized within 10 days of treatment, In human X-ALD fibroblasts, C24:0 levels were normalized within 10 days, whereas C26:0 levels were reduced by 47% after 22 days. The results obtained were independent of genotype or phenotype.
Cell culture and 4-PBA treatment. Cell lines derived from X-ALD patients and X-ALD mice were grown in MEM (fibroblasts) or RPMI (ymphoblastoid cells) supplemented with fetal calf serum (10%), penicillin (100 U/ml), streptomycin (100 U/mi) and glutamine (2 mM). […]
Biochemical measurements. […] C24:0 β-oxidation activity of human and mouse fibroblasts and human lymphoblastoid cells was determined by measuring their capacity to degrade [1-^14C]-C24:0 fatty acid (American Radiolabeled Chemicals, St Louis, Mo.) to water-soluble products as described. Phytanic acid oxidation was measured as described. Cells were incubated with [2,3-^3H]-phytanic acid for 24 hours, and the release of ^3H-H2O to the aqueous medium was determined (activity in pmol/hr per mg protein).

Pex11α = test: Semi-quantitative RT-PCR in primary fibroblasts; format: cell-based
Procedure: as §2, §4

With `O=C(O)CCCc1ccccc1` [4-PBA, 4-Phenyl butyrate] the “ALDP expression (mRNA)” value (ALDP [1]) was “little, if any, effect”, the PMP70 expression level (PMP70 [2]) was “little, if any, effect” and the “ALDP expression (mRNA)” value (ALDP [3]) was “little, if any, effect”. For the same molecule, the PMP70 expression level (PMP70 [4]) was “little, if any, effect”, the PMP69 expression level (PMP69) was “little, if any, effect” and the phytanic acid oxidation ([5]; X-ALD human primary fibroblasts) was “twofold increase”. The phytanic acid oxidation ([5]; normal human primary fibroblasts) was “twofold increase”, the “C26:0 levels reduced by” value ([6]; 5 mM 4-PBA, after 22 days) was 47% and the “effect of concentration on VLCFA levels” value ([6]; between 1 mM and 5 mM 4-PBA, human X-ALD fibroblasts and lymphoblastoid cells, data not shown) was “dose-dependent decrease”. For the same molecule, the Pex11α expression (Pex11α; human fibroblasts, 5 mM 4-PBA, after 2 days) was “substantial increase” and the Pex11α transcripts (Pex11α; normal or X-ALD mouse fibroblasts, before or after 10 day exposure to 5 mM 4-PBA, data not shown) was “undetectable”.
